# Columns and labels:
# ferritin = assay: Western blot of ferritin in cerebellar lysates; assay type: in vivo; conditions: cerebellar lysates of IRP2−/− mice, Tempo1 diet vs control diet
# Protocol: (§1) Diet: The mice were weaned 3-4 weeks after their birth. Immediately after weaning, mice were maintained on either a Tempo1-supplemented or control diet. In the Tempo1-supplemented diet, powdered Tempo1 was uniformly mixed with bacon-flavored mouse chow by a “cold press” technique (Bio-Serv, Frenchtown, N.J., USA) at a concentration of 10 mg/g of food. Bacon-flavored chow without Tempo1 was used as the control diet.
# Tissue and lysate preparation: Animals were euthanized and tissues were frozen in liquid nitrogen immediately after harvesting, and stored at −80° C. under argon. Experiments were performed on tissues that were pulverized in liquid N2-cooled mortars in an anaerobic chamber, and then lysed in lysis buffer that was deaerated by cyclic freezethaw and air-removal with argon. Nuclei and debris were removed by centrifugation. Preparations of lysates for assays of IRP1 activity, western blotting, carbonyl assay and protein analysis were performed anaerobically. […]
# Cerebellar lysates from wild-type and IRP2−/− mice that were maintained on a control diet or on a Tempo1-supplemented diet were analyzed for ferritin and actin expression. […] Quantification was performed with the NIH Image program. Error bars represent the standard deviation calculated from the results of three different sets of animals. […]
# mitochondrial aconitase = molecular target: T1, mitochondrial aconitase (Mus musculus, UniProt Q99KI0); assay: In-gel aconitase assay in mouse embryonic fibroblasts, mitochondrial aconitase; assay type: cell-based
# T1 construct: endogenous in cells; host or cells: mouse embryonic fibroblasts
# T1 sequence (Q99KI0 28-780): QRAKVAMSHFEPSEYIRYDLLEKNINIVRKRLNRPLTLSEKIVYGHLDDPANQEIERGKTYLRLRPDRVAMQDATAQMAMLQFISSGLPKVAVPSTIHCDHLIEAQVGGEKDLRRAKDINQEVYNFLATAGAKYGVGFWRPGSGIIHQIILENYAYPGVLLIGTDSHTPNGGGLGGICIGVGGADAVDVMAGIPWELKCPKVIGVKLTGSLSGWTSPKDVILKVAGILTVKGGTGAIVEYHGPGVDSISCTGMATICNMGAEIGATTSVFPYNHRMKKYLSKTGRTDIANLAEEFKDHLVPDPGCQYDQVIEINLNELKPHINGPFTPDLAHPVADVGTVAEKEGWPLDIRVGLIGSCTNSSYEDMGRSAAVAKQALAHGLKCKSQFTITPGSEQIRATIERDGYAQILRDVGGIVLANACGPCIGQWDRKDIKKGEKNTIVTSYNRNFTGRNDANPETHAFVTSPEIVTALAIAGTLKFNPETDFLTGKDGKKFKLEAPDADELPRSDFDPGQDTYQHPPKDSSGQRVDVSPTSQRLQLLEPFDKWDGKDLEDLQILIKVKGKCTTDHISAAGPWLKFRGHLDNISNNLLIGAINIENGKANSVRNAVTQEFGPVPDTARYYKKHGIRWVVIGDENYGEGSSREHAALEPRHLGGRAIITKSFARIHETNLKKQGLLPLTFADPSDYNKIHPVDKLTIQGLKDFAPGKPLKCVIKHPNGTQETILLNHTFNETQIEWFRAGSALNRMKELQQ
# Protocol: Cells: Embryonic fibroblasts of 13-day old embryos were isolated from wild type, IRP1−/− mice and IRP2−/− mice as described in LaVaute et al. supra. Myc-tagged HEK 293 Tet-on cell line, in which IRP2 expression was inducible, was prepared and cultured as described Bourdon et al., Blood Cells Mol Dis, 31, 247-255 (2003). Erythroblasts were harvested from bone marrow and purified as described in Cooperman et al., Blood, 106, 1084-1091 (2005).
# Aconitase assay: Aconitase activity gels for human lysates were performed as described in Tong et al., infra, and aconitase activity gels for mouse lysate were performed with the following modifications. […] Spectral aconitase activity was measured by following the method of Fillebeen et al., infra, using cis-aconitate as the substrate.
# To determine whether the effect of Tempo1 on IRP1 activity was kinetically consistent with oxidative disassembly of the iron sulfur cluster, the effect of Tempo1 on aconitase activity was compared to that of the iron chelator, deferiprone (DFO), which activates IRE-binding activity of IRP1 by limiting de novo synthesis and repair of the iron sulfur cluster in IRP1. […] Recovery of aconitase activity was assessed in wild type and IRP2−/− cells.
# IRP1 = assay: Western blot of IRP1 protein in brain-region lysates of IRP2−/− mice; assay type: in vivo; conditions: cerebellum, brain-stem and forebrain of IRP2−/− mice, Tempo1 diet vs control diet
# Protocol: as §1
# Tissue and lysate preparation: Animals were euthanized and tissues were frozen in liquid nitrogen immediately after harvesting, and stored at −80° C. under argon. Experiments were performed on tissues that were pulverized in liquid N2-cooled mortars in an anaerobic chamber, and then lysed in lysis buffer that was deaerated by cyclic freezethaw and air-removal with argon. […]
# Lysates made from various brain regions of IRP2−/− mice that were maintained on a control diet or on a Tempo1-supplemented diet were analyzed for IRE binding activity of IRP1 and for TfR1, IRP1, and actin protein levels by gel-shift assay and Western blot. […] FIG. 3b is a quantification of the results as intensity of the bands relative to the control, represented here as 100%. Quantification was performed with the IQMac (IRP1 activity) or NIH Image (protein levels) program. Error bars represent the standard deviation calculated from the results of two different sets of animals.
smiles,measurement,setting,value
CC1(C)CC(O)CC(C)(C)N1[O] [Tempo1],ferritin levels,ferritin,reduced
same,mitochondrial aconitase activity,mitochondrial aconitase,does not substantially affect
same,IRP1 protein levels,IRP1,did not significantly change

# Source: patent US20100179188A1, “NITROXIDE RADICAL AS TREATMENT FOR NEURODEGENERATION” (Office of Technology Transfer, NIH, priority 2007, published 2010)
